Consider seven compounds from ChEMBL document CHEMBL5126521, “Analgesic Opioid Ligand Discovery Based on Nonmorphinan Scaffolds Derived from Natural Sources” (J Med Chem, 2022).

For orientation: IC50 means the concentration needed to halve the response being measured. Read a low IC50 as higher potency. The Ki is a measure of affinity in units of concentration, obtained from inhibition or displacement. The term IC20 denotes the concentration needed for an effect of 20%. High values mean weaker potency, low ones greater potency. As a reminder, the EC50 is the concentration giving half of the maximal effect.

Structures are written as SMILES. Square brackets hold non-standard residues; d marks the D form. Peptide text beside a SMILES is read from it. Sar = CNCC(=O)O

In data set [1] the test system is Mus musculus. The data set can be described thus: Antinociceptive activity in mouse administered IT by tail pressure test. It is filed as functional.
For data set [2], the species on record is Mus musculus. Kind of data set: Antinociceptive activity in mouse by tail pressure test. It is filed as functional. Particulars: Mus musculus; read-out: ED50.
The test system of data set [3] is Mus musculus. Kind of data set: Antinociceptive activity in mouse administered sc by tail pressure test. It is filed as functional.
The subject of data set [4] is Rattus norvegicus. Kind of data set: Antinociceptive activity in rat at 2.5 to 5 mg/kg, icv.
The species named for data set [5] is Mus musculus. Kind of data set: Antinociceptive activity in mouse by hot plate test.
The subject of data set [6] is Mus musculus. The data set can be described thus: Antinociceptive activity in mouse assessed as tail-flick latency administered icv […]. It is filed as functional. For orientation: In hot-plate and tail-flick tests a longer latency is read as antinociception.
Data set [7] concerns Mus musculus. Kind of data set: Antinociceptive activity in mouse administered icv by tail pressure test. The data set is classed as functional.
In data set [8] the test system is Rattus norvegicus. The data set can be described thus: Antinociceptive activity in rat administered iv. The data set is classed as functional.
Data set [9] is filed under the species Rattus norvegicus. Kind of data set: Antinociceptive activity in rat. The data set is classed as functional.
For data set [10], the system named is Mus musculus. The data set can be described thus: Antinociceptive activity in mouse administered icv. The data set is classed as functional.
In data set [11] the test system is Rattus norvegicus. Kind of data set: Antinociceptive activity in rat administered IT. It is filed as functional.
In data set [12] the test system is Mus musculus. Kind of data set: Antinociceptive activity in mechanical allodynia mouse model administered sc. The data set is classed as functional.
Data set [13] deals with T1, Mu-type opioid receptor (Mus musculus, UniProt P42866). Kind of data set: Antagonist activity at mouse vas deferns MOP. It is filed as functional.
The target in data set [14] is T2, Mu-type opioid receptor (Homo sapiens, UniProt P35372). Kind of data set: Binding affinity to MOP (unknown origin).
Data set [15] deals with Mus musculus. Kind of data set: Antinociceptive activity in thermal hyperalgesia mouse model administered sc. It is filed as functional.
For data set [16], the target named is Delta-type opioid receptor (Homo sapiens, UniProt P41143). Kind of data set: Binding affinity to DOP (unknown origin).
For data set [17], the target named is Mu-type opioid receptor (Cavia porcellus, UniProt P97266). The data set can be described thus: (§1) Antagonist activity at guinea pig ileum MOP. The data set is classed as functional, tissue-based.
The target in data set [18] is Mu-type opioid receptor (Cavia porcellus) (UniProt P97266). The description is as §1. The data set is classed as functional, tissue-based. The settings on record: filed as antagonist.
Data set [19] addresses Mu-type opioid receptor (Bos taurus, UniProt P79350). The data set can be described thus: Displacement of [3H]DAMGO from calf thalamus membrane MOP by competitive binding assay. It is filed as cell membranes.
The target of data set [20] is Kappa-type opioid receptor (Cavia porcellus, UniProt P41144). The data set can be described thus: Displacement of [3H]U69593 from guinea pig cerebellum KOP by competitive binding assay. It is filed as tissue-based. On the technique in general: Displacement assays read how much labelled ligand stays bound in the presence of the test substance.
The test system of data set [21] is Mus musculus. The data set can be described thus: Antinociceptive activity in mouse administered po. The data set is classed as functional.
Data set [22] can be described thus: Displacement of [3H]DPDPE from calf frontal cortex membrane Delta-type opioid receptor by competitive binding assay. The data set is classed as cell membranes, Bos taurus.
The nature of data set [23]: Toxicity in rat assessed as inhibition of gastrointestinal transit at 100 to 300 pmol icv or IT by charcoal meal test. Particulars: in vivo, icv_or_intrathecal, dose 100-300 pmol.
For data set [24], the system named is Rattus norvegicus. Kind of data set: Antinociceptive activity in rat administered sc. The data set is classed as functional.
Data set [25] has as its system Mus musculus. Kind of data set: Antinociceptive activity in mouse administered IT. The data set is classed as functional.
The target in data set [26] is T2, Mu-type opioid receptor. The data set can be described thus: Agonist activity at human MOP stably expressed in CHO-K1 cells assessed as inhibition of forskolin-induced cAMP accumulation. It is filed as functional, cell-based.
Data set [27] addresses Kappa-type opioid receptor (Homo sapiens, UniProt P41145). Kind of data set: Agonist activity at KOP (unknown origin) assessed as inhibition of forskolin-induced cAMP accumulation. It is filed as functional. For orientation: cAMP levels reflect the balance of adenylyl cyclase and phosphodiesterase activity.
For data set [28], the system named is Mus musculus. Kind of data set: Antinociceptive activity in ip dosed mouse assessed as tail flick latency. It is filed as functional.
The target of data set [29] is T3, Delta-type opioid receptor (Mus musculus, UniProt P32300). The data set can be described thus: Displacement of [3H]DPDPE from mouse brain cerebellum DOP incubated for 2 hrs by liquid scintillation counter analysis. The data set is classed as tissue-based.
Data set [30] deals with T1, Mu-type opioid receptor. Kind of data set: Displacement of [3H]DAMGO from mouse spinal cord MOP measured after 60 mins by liquid scintillation counter analysis. It is filed as tissue-based.
Data set [31] concerns the target T3, Delta-type opioid receptor. The data set can be described thus: Displacement of [3H]deltorphin-II from mouse spinal cord DOP measured after 60 mins by liquid scintillation counter analysis. The data set is classed as tissue-based.
Data set [32] deals with Mus musculus. Kind of data set: Antinociceptive activity in mouse administered sc. It is filed as functional.
Data set [33] concerns the target T1, Mu-type opioid receptor. Kind of data set: Displacement of [3H]DAMGO from mouse brain cerebellum MOP incubated for 2 hrs by liquid scintillation counter analysis. The data set is classed as tissue-based.
Data set [34] has as its target T4, Kappa-type opioid receptor (Mus musculus, UniProt P33534). Kind of data set: Displacement of [3H]U-69593 from mouse spinal cord KOP measured after 60 mins by liquid scintillation counter analysis. It is filed as tissue-based.
Data set [35] deals with Mus musculus. Kind of data set: Antinociceptive activity in sc dosed mouse assessed as tail flick latency. It is filed as functional.
In data set [36] the test system is Mus musculus. Kind of data set: Antinociceptive activity in icv dosed mouse assessed as tail flick latency. It is filed as functional.
The target of data set [37] is T4, Kappa-type opioid receptor. Kind of data set: Displacement of [3H]U69593 from mouse brain membrane KOP by competitive binding assay. The data set is classed as cell membranes.
The test system of data set [38] is Mus musculus. Kind of data set: Antinociceptive activity in mouse at 3.2 to 32 pmol IT or sc. It is filed as functional. Particulars: dose 3.2-32 pmol.
Data set [39] can be described thus: Toxicity in mouse assessed as inhibition of gastrointestinal transit at 3.2 to 32 pmol IT or sc by charcoal meal test. It is filed as organism-based. The settings on record: in vivo, other, dose 3.2-32 pmol.

Turning to `CN1CC[C@]23c4c5ccc(O)c4O[C@H]2[C@@H](O)C=C[C@H]3[C@H]1C5` [MORPHINE], the ED50 in the data set with Mus musculus [1] came out at 0.72 pmol; in the data set filed under Mus musculus [2], 77.2 µmol/kg; in the data set on Mus musculus [3] it was 12.2 µmol/kg; with Rattus norvegicus [4] it was 169 µmol/kg; in the data set filed under Mus musculus [5], 11.3 µmol/kg; in the data set on Mus musculus [6], 17.3 nmol. The ED50 was determined as 1.05 nmol in the data set on Mus musculus [7]; 1.6 µmol/kg in the data set with Rattus norvegicus [8]; 5.8 µmol/kg in the data set filed under Rattus norvegicus [9] (Rattus norvegicus, read-out: ED50); 8.7 nmol in the data set with Mus musculus [10].
As for `NCCCC[C@H](NC(=O)[C@H](Cc1ccccc1)NC(=O)[C@@H](CCCN=C(N)N)NC(=O)[C@@H](N)Cc1ccc(O)cc1)C(N)=O`, the values for the ED50 in the data set on Rattus norvegicus [11], with Mus musculus [12] and in the data set on Mus musculus [15] were 2.37 pmol, 4.2 pmol and 0.06 pmol, respectively. Half-maximal inhibition against Mu-type opioid receptor [13] (IC50) was put at 781 nM. Moreover, the Ki worked out at 0.14 nM at Mu-type opioid receptor [14] and 19200 nM in data set [16].
With `CN(CC(=O)O)C(=O)[C@H](Cc1ccccc1)NC(=O)[C@@H](CCCN=C(N)N)NC(=O)[C@@H](N)Cc1ccc(O)cc1` (H-Y[dR]F[Sar]-OH), the ED50 worked out at 18 pmol with Rattus norvegicus [11]; 26 µmol/kg in the data set on Mus musculus [21]; 0.053 mg/kg in data set [23]; 0.8 µmol/kg with Rattus norvegicus [8]; 4.1 pmol in the data set listed under Rattus norvegicus [9]; 0.61 mg/kg in the data set on Rattus norvegicus [24]. The same compound had an ED50 with Mus musculus [25] of 4.5 pmol. The compound also registered an IC50 against Mu-type opioid receptor [17] of 6.9 nM. The same compound showed a 20% effect concentration (IC20) in data set [18] of 21 nM. In addition, the Ki at Mu-type opioid receptor [19] is 0.5 nM; in data set [20], more than 10000 nM; in data set [22] it was 562 nM.
Turning to `COC(=O)[C@@H]1C[C@H](OC(=O)c2ccc(CO)cc2)C(=O)[C@H]2[C@@]1(C)CC[C@H]1C(=O)O[C@H](c3ccoc3)C[C@]21C`, the EC50 at Mu-type opioid receptor [26] was 0.03 nM; in data set [27], more than 10000 nM. The ED50 in the data set on Mus musculus [28] is 2.35 mg/kg.
As for `N=C(N)NCCC[C@@H](NC(=O)[C@H](Cc1ccc(O)cc1)NC(=N)N)C(=O)N[C@@H](Cc1ccccc1)C(=O)NCCC(=O)O`, the Ki in [29] was 160 nM; at Mu-type opioid receptor [30], 12.9 nM; in data set [31], more than 1000 nM; on Mu-type opioid receptor [33] it was 0.67 nM; in [34], more than 1000 nM. Further, the ED50 with Mus musculus [21] was found to be 19 mg/kg; in the data set on Mus musculus [32], 0.24 mg/kg; in the data set with Mus musculus [25] it was 0.34 pmol.
`COC(=O)[C@@H]1C[C@H](OC(C)=O)C(=O)[C@H]2[C@@]1(C)CC[C@H]1C(=O)O[C@H](c3ccoc3)C[C@]21C` [SALVINORIN A]: the ED50 in the data set on Mus musculus [35] turned out to be 2.1 mg/kg; with Mus musculus [36], 1.5 µg.
Regarding `Cc1cc(O)cc(C)c1C[C@H](N)C(=O)N[C@H](CCCNC(=N)N)C(=O)N[C@@H](Cc1ccccc1)C(=O)N[C@@H](CCCCN)C(N)=O`, the Ki was 0.14 nM on Mu-type opioid receptor [19], 11.5 nM in [37] and 116 nM in data set [22]. Moreover, the ED50 in the data set with Mus musculus [38] was found to be 0.0655 mg/kg; in data set [39], 0.006 mg/kg.
